Earlier results on one compound are cited in US20050019354A1, “Topical benfotiamine treatments” (priority 2003, published 2005).

The target in one series is T1, transketolase (Homo sapiens, UniProt P29401).
T1 sequence (P29401 1-623): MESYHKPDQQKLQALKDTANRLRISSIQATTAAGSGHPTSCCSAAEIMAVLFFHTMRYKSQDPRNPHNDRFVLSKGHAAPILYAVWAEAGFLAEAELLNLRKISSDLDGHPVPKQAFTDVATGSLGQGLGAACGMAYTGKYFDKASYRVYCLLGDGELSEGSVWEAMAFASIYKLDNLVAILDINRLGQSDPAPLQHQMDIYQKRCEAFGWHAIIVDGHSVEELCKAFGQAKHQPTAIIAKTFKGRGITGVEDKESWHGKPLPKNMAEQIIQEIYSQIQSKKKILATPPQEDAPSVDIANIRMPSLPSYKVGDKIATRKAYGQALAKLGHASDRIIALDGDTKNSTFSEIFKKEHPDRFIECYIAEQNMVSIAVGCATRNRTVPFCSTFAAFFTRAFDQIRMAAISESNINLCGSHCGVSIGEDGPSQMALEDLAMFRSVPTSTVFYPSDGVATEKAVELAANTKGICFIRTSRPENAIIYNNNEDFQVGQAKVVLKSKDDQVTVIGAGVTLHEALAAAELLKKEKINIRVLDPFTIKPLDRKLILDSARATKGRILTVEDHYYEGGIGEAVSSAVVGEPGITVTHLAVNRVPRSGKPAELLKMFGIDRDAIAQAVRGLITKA

The test system of series [1] is retinopathy in diabetic rats.

Molecules are shown by their SMILES.

Take `C/C(=C(\CCOP(=O)(O)O)SC(=O)c1ccccc1)N(C=O)Cc1cnc(C)nc1N` [Benfotiamine, S-Benzoylthiamine-O-Monophosphate]: the “increase of transketolase activity” value at transketolase is 300%. For the same compound, the effect on retinopathy entry in series [1] is “prevented retinopathy”.
